Results taken from US20220265646A1, “PIEZO AGONISTS FOR PREVENTING OR REVERTING ABNORMAL AMYLOID DEPOSITION” (ITÄ-SUOMEN YLIOPISTO, priority 2019, published 2022).

How the values were obtained:
hIPSC-derived microglia = assay: Cytokine measurement (cytokine bead assay) in LPS-treated iPSC-derived microglia; assay type: cell-based, human; details: Yoda1 20 μM (Y20), n=4 per group
Description: Cytokine measurement. The impact of Piezo1Rs effect on the capacity of the iPSC derived microglia to release cytokines was evaluated using cytokine bead assay (CBA, PD Pharmingen)). Shortly, prior to the experiment IPSCs were plated in 24-well plate at 70,000 cells/cm^2 and cultured for 48 hours. […] Next, media were collected, centrifuged to remove any cell debris, and the supernatant was frozen at −70° C. Cytokines were analyzed with cytometric bead array mouse inflammation kit (BD Biosciences) according to manufacturer's instructions.

[1] = test system: 5xFAD transgenic mice modeling Alzheimer's disease; assay: 5xFAD transgenic mice, intraventricular cannula infusion, immunohistochemistry for Iba1 and Aβ (WO2); assay type: in vivo, mouse; details: 5xFAD mice, treated for 2 weeks
Description: To evaluate the effect of microglial Piezo1 Rs mechanosensor in vivo the present inventors used 5-month-old transgenic SXFAD male mice (Jackson Laboratories, Bar Harbor, Me., US) which were randomly divided into 3 groups. 5xFAD mice express human APP and PSEN1 transgenes with a total of five AD-linked mutations: the Swedish (K670N/M671L), Florida (1716V), and London (V7171) mutations in APP, and the M146L and L286V mutations in Presenilin-1 (PSEN1). These widely used mice recapitulate many AD-related phenotypes and have a relatively early and aggressive presentation. Amyloid plaques, accompanied by gliosis, are seen in mice as young as two months of age. Amyloid pathology is more severe in females than in males. Neuron loss occurs in multiple brain regions, beginning at about 5 months in the areas with the most pronounced amyloidosis. Mice display a range of cognitive and motor deficits. The animals were implanted with the intraventricular cannulas. Briefly, surgical anesthesia was induced using 5% isoflurane and maintained with 1.8% isoflurane (in 30% 02/70% N20). The temperature of the animals was maintained at 37±0.5° C. using a thermostatically controlled heating blanket with a rectal probe (Pan Lab, Harvard Apparatus). After the skull was exposed a small hole approximately 1 mm in diameter was drilled into the left hemisphere of the skull using following coordinates: m/l (medial/lateral) +1.1 mm, a/p (anterior/posterior) −0.3 mm, d/v (dorsal/ventral) −2.0 mm. […]
Brain sample preparation and Immunohistochemistry. […] Next, Aβ deposits and microglial were detected. […] For quantification of Aβ and Iba1 immunoreactivities, the stained sections were imaged using 10× magnification in Zeiss Axio ImagerM.2 microscope equipped with Axiocam 506 mono CCD camera (Carl Zeiss, Oberkochen) running ZEN software (Carl Zeiss) for tailing and stitching of the images. Cortical and hippocampal Aβ and Iba1 immunoreactivities were quantified from 6 stained sections at 400 μm intervals per animal using MatLab code (MathWorks, MatLab 2017b). […]

Piezo1Rs = molecular target: T1, Piezo1Rs (Homo sapiens, UniProt Q92508); assay: Calcium imaging of Yoda1-evoked Ca2+ transients in SV-40 immortalized human microglia cell line; assay type: cell-based; details: control SV-40 cells, n=13
T1 construct: SV-40 immortalized human microglia cell line which endogenously express Piezo-1 and Piezo2Rs was used; endogenous in cells; host or cells: SV-40 immortalized human microglia cell line
T1 sequence (Q92508 whole entry): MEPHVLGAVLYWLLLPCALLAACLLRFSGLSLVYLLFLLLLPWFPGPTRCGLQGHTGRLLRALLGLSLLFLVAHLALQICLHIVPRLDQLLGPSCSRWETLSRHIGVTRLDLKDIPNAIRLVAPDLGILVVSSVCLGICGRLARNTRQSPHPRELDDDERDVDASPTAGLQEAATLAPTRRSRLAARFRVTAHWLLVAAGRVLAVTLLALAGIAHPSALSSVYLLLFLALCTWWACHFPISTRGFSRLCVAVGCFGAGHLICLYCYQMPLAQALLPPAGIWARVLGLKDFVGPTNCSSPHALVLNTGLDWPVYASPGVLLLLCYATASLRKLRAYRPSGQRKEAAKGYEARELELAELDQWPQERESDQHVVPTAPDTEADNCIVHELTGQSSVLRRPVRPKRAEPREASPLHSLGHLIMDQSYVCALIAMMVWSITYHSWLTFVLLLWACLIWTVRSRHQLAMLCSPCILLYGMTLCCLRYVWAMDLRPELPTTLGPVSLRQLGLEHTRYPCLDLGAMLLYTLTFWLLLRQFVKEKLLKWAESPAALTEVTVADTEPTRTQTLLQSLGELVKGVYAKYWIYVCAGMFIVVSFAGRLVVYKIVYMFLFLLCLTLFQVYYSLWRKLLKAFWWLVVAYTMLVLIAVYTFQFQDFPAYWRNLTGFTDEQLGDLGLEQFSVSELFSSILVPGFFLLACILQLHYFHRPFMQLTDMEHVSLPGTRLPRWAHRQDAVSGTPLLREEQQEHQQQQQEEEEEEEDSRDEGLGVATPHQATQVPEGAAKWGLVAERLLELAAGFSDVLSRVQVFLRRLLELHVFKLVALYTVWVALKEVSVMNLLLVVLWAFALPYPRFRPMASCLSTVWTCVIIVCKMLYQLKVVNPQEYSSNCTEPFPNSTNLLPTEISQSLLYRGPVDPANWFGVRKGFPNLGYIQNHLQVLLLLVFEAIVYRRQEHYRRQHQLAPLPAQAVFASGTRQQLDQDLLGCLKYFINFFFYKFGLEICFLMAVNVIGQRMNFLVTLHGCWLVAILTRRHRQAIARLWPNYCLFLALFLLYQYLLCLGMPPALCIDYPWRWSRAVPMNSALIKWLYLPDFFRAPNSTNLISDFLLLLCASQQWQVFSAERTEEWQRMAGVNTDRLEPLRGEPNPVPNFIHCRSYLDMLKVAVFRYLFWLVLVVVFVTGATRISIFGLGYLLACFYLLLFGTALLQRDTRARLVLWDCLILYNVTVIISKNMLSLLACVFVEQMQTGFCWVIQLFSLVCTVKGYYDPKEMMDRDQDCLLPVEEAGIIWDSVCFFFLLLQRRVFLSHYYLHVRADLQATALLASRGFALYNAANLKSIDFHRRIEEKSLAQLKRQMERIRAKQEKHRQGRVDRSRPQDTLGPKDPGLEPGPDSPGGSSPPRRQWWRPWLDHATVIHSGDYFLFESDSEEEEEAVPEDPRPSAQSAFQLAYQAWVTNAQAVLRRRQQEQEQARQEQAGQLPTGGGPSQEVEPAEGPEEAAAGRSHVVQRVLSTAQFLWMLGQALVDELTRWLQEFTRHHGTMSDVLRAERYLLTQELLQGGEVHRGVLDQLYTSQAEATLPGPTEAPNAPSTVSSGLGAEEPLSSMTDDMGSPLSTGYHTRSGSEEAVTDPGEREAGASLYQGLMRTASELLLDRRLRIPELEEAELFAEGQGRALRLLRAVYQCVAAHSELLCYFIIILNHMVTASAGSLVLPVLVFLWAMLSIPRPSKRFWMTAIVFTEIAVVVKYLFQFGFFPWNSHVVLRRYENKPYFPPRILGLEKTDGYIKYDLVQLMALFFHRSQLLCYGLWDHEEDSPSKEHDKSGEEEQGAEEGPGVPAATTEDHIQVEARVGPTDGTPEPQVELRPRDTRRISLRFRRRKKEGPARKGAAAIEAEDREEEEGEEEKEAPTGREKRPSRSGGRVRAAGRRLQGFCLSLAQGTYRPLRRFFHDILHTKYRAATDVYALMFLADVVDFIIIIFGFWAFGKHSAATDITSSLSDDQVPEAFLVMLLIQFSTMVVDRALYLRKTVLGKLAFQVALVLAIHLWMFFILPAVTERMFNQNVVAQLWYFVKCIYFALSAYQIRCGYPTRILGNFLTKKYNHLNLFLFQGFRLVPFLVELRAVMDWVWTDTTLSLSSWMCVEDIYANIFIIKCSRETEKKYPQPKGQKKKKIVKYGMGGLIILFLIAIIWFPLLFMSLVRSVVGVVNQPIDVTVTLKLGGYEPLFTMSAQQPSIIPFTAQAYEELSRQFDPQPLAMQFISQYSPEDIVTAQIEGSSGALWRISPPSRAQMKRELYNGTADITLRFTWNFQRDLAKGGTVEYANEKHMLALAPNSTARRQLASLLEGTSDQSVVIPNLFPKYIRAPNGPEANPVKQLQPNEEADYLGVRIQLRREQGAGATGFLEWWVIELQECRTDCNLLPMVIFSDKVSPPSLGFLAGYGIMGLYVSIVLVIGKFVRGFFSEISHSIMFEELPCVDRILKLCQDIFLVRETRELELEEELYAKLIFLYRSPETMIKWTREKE
Description: To study the calcium influx evoked by native Piezo1 Rs expressed in microglia cells the present inventors used short Yoda1 applications (2 s, 50 μM if not otherwise specified). For this purpose, human IPSO derived microglia cells and SV-40 (immortalized human microglia) cells were seeded on 7 mm cover slips 1 day prior to the imaging experiment. Cells were loaded with the calcium-sensitive fluorescent dye Fluo-4AM (5 μM) for 30 min at 37° C. Followed by wash-incubation for 15 min in Ab 20 μM, 50 μM GdCI and basic solution (BS) as a control at 37° C. The basic solution containing the following (BS, in mM): 2.5 KCl, 152 NaCl, 10 glucose, 2 CaCl2, and 10 HEPES at pH 7.4. Fluorescence was visualized using monochromatic light source (TILL Photonics GmbH) using Ex/Im 494/[…] and a CCD camera (SensiCam). […] To quantify the difference in the amplitude of calcium transients, the ratio values were normalized by subtracting a baseline and further divided by the amplitude of the calcium transient to the 2 sec application of the ionomycin. Data were pre-analyzed offline using the FEI offline analysis (TILL Photonics), and further analysis was automatized using MatLab. Quantitative data were expressed as means±SEM unless otherwise stated. […] Significance assessed with the ANOVA test or Mann-Whitney t test for non-parametric data. […]

[2] = 0.05 μg/μl, 5 μl infusion once a day

## Clc1cccc(Cl)c1CSc1nnc(-c2cnccn2)s1 [Yoda1]
hIPSC-derived microglia; LPS
  secretion of anti-inflammatory IL-10: increases the secretion
hIPSC-derived microglia
  LPS induced secretion of pro-inflammatory IL-6: prevented the LPS induced secretion
  LPS induced secretion of pro-inflammatory IL-8: prevented the LPS induced secretion
  LPS induced secretion of pro-inflammatory MCP1: prevented the LPS induced secretion
[1]
  microglial accumulation near the Aβ deposits: enhanced microglial accumulation
[1]; [2]
  Iba1 immunoreactivity in cortex and hippocampus: significantly increased
  extent of brain Aβ load in cortex and hippocampi (WO2 staining): significant reduction
Piezo1Rs
  Yoda1 activated Ca2+ transients, amplitude normalized to ionomycin: 0.82±0.14
